The values that follow are results of earlier work, collected in US12239625B2, “Modified release gamma-hydroxybutyrate formulations having improved pharmacokinetics” (Flamel Ireland Limited, priority 2016, dated 2025).

Read-outs that look alike come from different tables or passages of the source.

Data set [1] relates to plasma proteins. The note with it: GHB concentrations 3 mcg/mL to 300 mcg/mL.
The subject of data set [2] is rat. Conditions: 2-year study.
Data set [3] concerns mouse. Conditions: 2-year study.
For data set [4], the system named is CYP3A. The note with it: up to 3 mM (378 mcg/mL).
For data set [5], the system named is pregnant rats.
For data set [6], the target named is CYP2E1 (Homo sapiens, UniProt P05181). Conditions: up to 3 mM (378 mcg/mL).
For data set [7] the following is noted: single oral dose 25 mg/kg.
The test system of data set [8] is rats.
The subject of data set [9] is rat. The note with it: in vivo.
Data set [10] addresses CYP2D6 (Homo sapiens, UniProt P10635). The note with it: up to 3 mM (378 mcg/mL).
In data set [11] the test system is rats. The source holds these as a separate data set.
Data set [12] relates to mammalian cells. The note with it: in vitro.
Data set [13] addresses CYP2C9 (Homo sapiens, UniProt P11712). Conditions: up to 3 mM (378 mcg/mL).
The subject of data set [14] is male and female rats. The note with it: oral 150, 350, or 1,000 mg/kg/day prior to and throughout mating.
The target of data set [15] is CYP2C19 (Homo sapiens, UniProt P33261). The note with it: up to 3 mM (378 mcg/mL).
The conditions of data set [16]: 6 g per day as two 3 g doses; ibuprofen 800 mg four times per day.
The target in data set [17] is T1, CYP1A2 (Homo sapiens, UniProt P05177).
T1 sequence (P05177 1-516): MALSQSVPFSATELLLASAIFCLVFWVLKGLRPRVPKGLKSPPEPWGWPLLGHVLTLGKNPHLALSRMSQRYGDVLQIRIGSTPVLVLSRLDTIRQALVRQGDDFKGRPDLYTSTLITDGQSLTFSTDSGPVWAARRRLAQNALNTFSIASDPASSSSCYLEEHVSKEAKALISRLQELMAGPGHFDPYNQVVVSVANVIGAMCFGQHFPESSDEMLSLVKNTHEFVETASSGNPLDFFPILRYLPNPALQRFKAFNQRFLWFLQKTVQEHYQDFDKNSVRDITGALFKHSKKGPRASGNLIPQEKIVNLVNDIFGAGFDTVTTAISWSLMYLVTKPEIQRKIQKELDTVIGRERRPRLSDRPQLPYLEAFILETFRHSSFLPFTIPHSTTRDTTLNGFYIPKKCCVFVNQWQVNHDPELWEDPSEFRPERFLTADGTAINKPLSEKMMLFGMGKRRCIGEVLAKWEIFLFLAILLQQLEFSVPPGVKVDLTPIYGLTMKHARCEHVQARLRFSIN
The note with it: up to 3 mM (378 mcg/mL).

Data set [18] deals with patients with narcolepsy. Conditions: estimated dose of 150 g.
The subject of data set [19] is bacterial gene mutation. Conditions: in vitro.
For data set [20], the system named is pregnant rabbits.

Sequence of CYP2C9 (P11712 whole entry): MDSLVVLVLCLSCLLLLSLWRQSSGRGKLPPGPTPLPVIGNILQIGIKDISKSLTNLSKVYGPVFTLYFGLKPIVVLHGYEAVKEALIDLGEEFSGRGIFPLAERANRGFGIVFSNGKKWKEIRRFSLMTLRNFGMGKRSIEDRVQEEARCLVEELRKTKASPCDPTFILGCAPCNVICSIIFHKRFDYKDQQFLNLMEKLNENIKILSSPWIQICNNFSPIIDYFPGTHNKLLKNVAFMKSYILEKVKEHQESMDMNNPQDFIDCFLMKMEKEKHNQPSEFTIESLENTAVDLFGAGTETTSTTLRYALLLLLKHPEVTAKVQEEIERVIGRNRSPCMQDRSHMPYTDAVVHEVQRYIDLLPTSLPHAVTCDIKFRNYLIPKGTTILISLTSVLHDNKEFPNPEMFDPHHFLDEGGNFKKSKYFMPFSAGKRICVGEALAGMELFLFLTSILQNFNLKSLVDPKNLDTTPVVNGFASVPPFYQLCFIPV
Sequence of CYP2C19 (P33261 whole entry): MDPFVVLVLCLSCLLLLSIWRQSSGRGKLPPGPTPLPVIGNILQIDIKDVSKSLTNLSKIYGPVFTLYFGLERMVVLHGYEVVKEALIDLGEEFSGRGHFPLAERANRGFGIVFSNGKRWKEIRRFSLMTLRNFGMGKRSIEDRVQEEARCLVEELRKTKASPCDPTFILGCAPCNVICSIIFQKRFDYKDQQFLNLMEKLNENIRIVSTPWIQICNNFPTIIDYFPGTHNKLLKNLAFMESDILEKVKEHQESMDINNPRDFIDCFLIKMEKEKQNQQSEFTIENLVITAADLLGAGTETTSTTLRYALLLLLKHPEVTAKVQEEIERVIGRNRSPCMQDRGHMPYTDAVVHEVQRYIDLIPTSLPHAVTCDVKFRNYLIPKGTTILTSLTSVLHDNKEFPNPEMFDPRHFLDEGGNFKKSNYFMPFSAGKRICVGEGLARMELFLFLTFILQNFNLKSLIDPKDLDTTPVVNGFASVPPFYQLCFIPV
Sequence of CYP2D6 (P10635 whole entry): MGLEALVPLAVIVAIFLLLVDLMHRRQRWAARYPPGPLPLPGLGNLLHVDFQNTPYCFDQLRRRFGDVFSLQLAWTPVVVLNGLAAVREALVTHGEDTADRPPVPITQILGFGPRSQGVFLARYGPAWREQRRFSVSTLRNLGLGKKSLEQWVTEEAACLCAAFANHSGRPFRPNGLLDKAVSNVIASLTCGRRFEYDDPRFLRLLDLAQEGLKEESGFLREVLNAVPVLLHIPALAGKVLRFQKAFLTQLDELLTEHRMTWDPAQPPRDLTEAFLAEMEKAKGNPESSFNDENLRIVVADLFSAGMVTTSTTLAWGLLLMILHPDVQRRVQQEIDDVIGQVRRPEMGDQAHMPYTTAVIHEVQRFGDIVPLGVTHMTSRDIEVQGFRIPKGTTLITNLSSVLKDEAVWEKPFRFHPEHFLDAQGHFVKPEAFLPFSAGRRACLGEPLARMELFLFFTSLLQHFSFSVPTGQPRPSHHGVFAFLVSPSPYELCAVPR
Sequence of CYP2E1 (P05181 whole entry): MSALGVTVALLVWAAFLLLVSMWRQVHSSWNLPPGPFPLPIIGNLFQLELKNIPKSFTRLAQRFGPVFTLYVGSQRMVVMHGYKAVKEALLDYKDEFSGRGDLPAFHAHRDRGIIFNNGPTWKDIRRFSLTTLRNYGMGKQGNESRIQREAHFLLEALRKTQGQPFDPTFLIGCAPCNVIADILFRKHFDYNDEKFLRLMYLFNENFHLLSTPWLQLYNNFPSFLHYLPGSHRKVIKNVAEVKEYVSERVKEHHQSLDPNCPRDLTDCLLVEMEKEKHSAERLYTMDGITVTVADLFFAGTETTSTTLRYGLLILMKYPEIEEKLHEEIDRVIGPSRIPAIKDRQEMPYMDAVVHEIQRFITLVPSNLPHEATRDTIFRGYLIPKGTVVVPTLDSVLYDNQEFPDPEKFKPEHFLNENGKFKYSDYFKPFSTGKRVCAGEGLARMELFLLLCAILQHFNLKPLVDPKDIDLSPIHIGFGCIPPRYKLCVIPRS

As for `O=C(O)CCCO` [GHB, gamma-hydroxybutyrate], the “Excretion in human milk” value (after oral administration of sodium oxybate) is recorded as “excreted in human milk”. In addition, for the setting “human, in vivo”, the “Apparent volume of distribution” value was 0.19 to 0.384 L/kg and the Elimination half-life is 30 to 60 min. Also, the “Unchanged drug in human urine” value (within 6 to 8 hours after dosing) is on record as “less than 5%”. The “Bound to plasma proteins” value in data set [1] is on record as “less than 1%”.
On to `O=C1CCCO1` [gamma-butyrolactone], for which the Carcinogenic activity result in data set [2] and in data set [3] was “no clear evidence of carcinogenic activity” throughout.
For `O=C([O-])CCCO.[Na+]` [sodium oxybate, sodium 4-hydroxybutyrate], the “Gender differences in the pharmacokinetics of GHB” value (18 female and 18 male healthy adults, oral dose 4.5 g) is “no gender differences”. Further, the “Inhibition of CYP3A activity” value in data set [4] is listed as “does not significantly inhibit”. Further, the Developmental toxicity entry in [5] (oral 150, 350, or 1,000 mg/kg/day throughout organogenesis) is “no clear evidence of developmental toxicity”; in data set [20] (oral 300, 600, or 1,200 mg/kg/day throughout organogenesis), “no clear evidence of developmental toxicity”. Moreover, the figures for the “Highest dose tested as multiple of the MRHD (9 g per night) on mg/m2 basis” value in data set [5] (rats) and in data set [20] (rabbits) were “approximately 1 times” and around 3 times, respectively. Moreover, the “Inhibition of CYP2E1 activity” value in data set [6] is reported as “does not significantly inhibit”. Moreover, the Mean elimination half-life in [7] (Class A) was 32 min; in data set [7] (Class C) it was 59 min; in data set [7] (control patients) it was 22 min. In addition, the “Body weight gain and sexual maturation” value in [8] (at the highest dose tested (900 mg/kg/day)) was “Reduced body weight gain in males and females and delayed sexual maturation in males”. Moreover, the Mortality result in [8] (oral 0, 100, 300, or 900 mg/kg/day, postnatal days 21 through 90) is on record as “mortality was observed at the two highest closes tested”. Also, the Micronucleus entry in data set [9] is recorded as “negative”. In addition, the “Inhibition of CYP2D6 activity” value in [10] is “does not significantly inhibit”. Moreover, in data set [11] (oral doses up to 1,000 mg/kg/day for 83 (males) or 104 (females) weeks), the Tumors result was “no increase in tumors”. Moreover, the “Plasma exposure (AUC) at the highest dose tested as multiple of that in humans at the MRHD” value in data set [11] (rats) was 2 times. In data set [12], the Chromosomal aberration entry was “negative”. The “Inhibition of CYP2C9 activity” value in data set [13] was “does not significantly inhibit”. Further, the Effects on fertility entry in data set [14] is reported as “no adverse effects on fertility”. For the same molecule, the “Inhibition of CYP2C19 activity” value in data set [15] was “does not significantly inhibit”. Besides, the “Systemic exposure to GHB on co-administration with ibuprofen” value in data set [16] is “comparable systemic exposure to GHB”. The “Inhibition of CYP1A2 activity” value in data set [17] is “does not significantly inhibit”. In data set [18], the Overdose case entry was “unresponsive with brief periods of apnea”. In addition, the Bacterial gene mutation entry in data set [19] is given as “negative”.
